Values after ≈ are worked out from the molar mass of the structure shown. “Also recorded” adds a separate entry of the source.
Experiments:
[1] = test system: Enterococcus faecium (EF, ATCC 49032); assay: Microbroth dilution assay, E. faecium; format: cell-based; conditions: concentration at which growth is reduced by 50%
Method: (§1) Compounds 1-8 were tested for antimicrobial activity against Staphylococcus aureus (SA, ATCC 25923), methicillin-resistant S. aureus (MRSA, ATCC BAA-41), multidrug-resistant S. aureus (MDRSA, ATCC BAA-44), Enterococcus faecium (EF, ATCC 49032), vancomycin-resistant E. Faecium (VRE, ATCC 700221), and Bacillus subtilis (ATCC 49343) using a modified disk diffusion assay and microbroth liquid dilution assays. For disk diffusion assays, agar plates seeded with suspensions of bacteria were prepared by adding 500 μL of a 24 h culture of bacteria to 100 mL of autoclaved Mueller Hinton II agar and cooled to 55° C. Seeded liquid agar (10 mL) was transferred immediately to square Petri dishes and allowed to cool for 1 h. Control drugs used for each microorganism included kanamycin (50 μg) for S. aureus, and nitrofurantoin (25 μg) for MRSA. Following incubation at 37° C. for 18 h, zones of inhibition were measured. MICso values for compounds 1 and 4-8 were determined using a microbroth dilution assay outlined in the Clinical and Laboratory Standards Institute methods for susceptibility tests for bacteria that grow aerobically. Briefly, single bacterial colonies were used to inoculate 4 mL of Trypticase Soy broth (BD) for overnight growth and inoculum for each were diluted to 5×10^5 CFU/mL using the 0.5 McFarland standard. In a 96 well plate (Costar, round bottom), control antibiotics (oxacillin for SA and MRSA, vancomycin for EF and VRE, chloramphenicol for B. subtilis) or natural product inhibitors were added to Muller Hinton II broth (for S. aureus, MRSA, and B. subtilis) or 10% brain heart infusion broth (for E. faecium and VRE) in the first column of the well plates, and serially diluted across the plate, reserving wells for a positive growth control (no treatment). 10 μL of diluted bacteria were added to all wells with the exception of those kept for broth blanks (MHII or brain heart infusion broth only). Plates were incubated at 37° C. overnight and read at absorbance 600 nm on a Molecular Devices plate reader. Growth curves were plotted and ICso values obtained using Kalidagraph software.

[2] = test system: control mammalian cell line BSC-1; assay: Cytotoxicity, BSC-1 control cells; format: cell-based; conditions: no cytotoxicity at concentrations as high as
GTP binding site of FtsZ = GTP binding site of FtsZ (Escherichia coli, UniProt P0A9A6); assay: Competition STD NMR with GTPγS; parameters: species or system E. coli; conditions: for mode of binding relative to GTP/GTPγS: GTPγS titration 0.5-3.0 equivalents
[3] = test system: vancomycin-resistant E. Faecium (VRE, ATCC 700221); assay: Microbroth dilution assay, VREF; format: cell-based, Enterococcus faecium; conditions: microbroth dilution, concentration at which growth is reduced by 50%
Method: as §1

recombinant E. coli FtsZ = recombinant E. coli FtsZ (Escherichia coli, UniProt P0A9A6); assay: Saturation Transfer Difference (STD) NMR binding to FtsZ
Method: Saturation transfer difference (STD) NMR experiments were recorded with the carrier set at −1 or 12 ppm for on-resonance irradiation and at 40 ppm for off-resonance irradiation. […] Selective protein saturation (2 s) was accomplished by using a train of 50 ms Gauss-shaped pulses, each separated by a 1 ms delay, at an experimentally determined optimal power (49 dB on our probe); a T1ρ filter (30 ms) was incorporated to suppress protein resonances. Experiments were recorded using a minimum of 1024 scans and 32K points. On- and off-resonance spectra were processed independently, and subtracted to provide a difference spectrum.
Saturation Transfer Difference (STD) NMR is an NMR technique that provides atomic level detail of the epitope used by a small molecule ligand to bind its macromolecular (protein) receptor. […] Spectra of were recorded at 298 K with the carrier set at −1 or 12 ppm for on-resonance irradiation and 50 ppm for off-resonance irradiation. Selective protein saturation (duration ranging from 1 to 5 s) was accomplished using a train of 50 ms Gauss-shaped pulses, each separated by a 1 ms delay, at an experimentally determined optimal power (49 dB); a T1ρ filter (30 ms) was incorporated to suppress protein resonances. A minimum of 512 scans and 4000 points were used to ensure high quality data with good signal-to-noise. On- and off-resonance spectra were processed independently, and subtracted to provide a difference spectrum. […] STD enhancements were measured by integrating difference spectra where the peaks showing the strongest enhancements relative to the control spectra were used to normalize all non-overlapped peaks in the difference spectra.

[4] = test system: murine leukemia cell line P388; assay: Cytotoxicity, P388; format: cell-based; conditions: did not inhibit growth at concentrations as high as
tubulin = assay: Tubulin polymerization assay; format: biochemical; conditions: for effect on tubulin polymerization: at 150 μM, 15 times its IC50 for FtsZ
[5] = test system: Staphylococcus aureus (SA, ATCC 25923); assay: Microbroth dilution assay, S. aureus; format: cell-based; conditions: concentration at which growth is reduced by 50%; for MIC50 (μg/mL) S. aureus: microbroth dilution
Method: as §1

[6] = test system: Enterococcus faecium (EF, ATCC 49032); assay: Agar disk diffusion assay, E. faecium; format: cell-based
Method: as §1

[7] = test system: vancomycin-resistant E. Faecium (VRE, ATCC 700221); assay: Agar disk diffusion assay, VREF; format: cell-based, Enterococcus faecium
Method: as §1

[8] = test system: Staphylococcus aureus (SA, ATCC 25923); assay: Agar disk diffusion assay, S. aureus; format: cell-based
Method: as §1

[9] = test system: Gram-positive pathogens (S. aureus, B. subtilis, E. faecium, MRSA, MDRSA, VREF); assay: Disk diffusion and microbroth dilution assays, strains taken together; format: cell-based
Excerpt: Solid agar disk diffusion and microbroth dilution assays were used to evaluate the antimicrobial activities of compounds 1, hexaacetate 1a, and 4-8 toward clinically relevant, Gram-positive pathogens, including the drug-susceptible bacteria Staphylococcus aureus, Bacillus subtilis and Enterococcus faecium, and drug-resistant strains methicillin-resistant S. aureus (MRSA), multidrug-resistant S. aureus (MDRSA), and vancomycin-resistant E. faecium (VREF) (see Table 7, Example 2).
as §1, with “In a 96 well plate (Costar, round bottom), control antibiotics (oxacillin for SA and MRSA, vancomycin for EF and VRE, chloramphenicol for B. subtilis) or natural product inhibitors were added to Muller Hinton II broth (for S. aureus, MRSA, and B. subtilis) or 10% brain heart infusion broth (for E. faecium and VRE) in the first column of the well plates, and serially diluted across the plate, reserving wells for a positive growth control (no treatment). 10 μL of diluted bacteria were added to all wells with the exception of those kept for broth blanks (MHII or brain heart infusion broth only).” left out, “Growth curves were plotted and ICso values obtained using Kalidagraph software.” left out

[10] = 100-fold excess of compound over FtsZ
[11] = Lowest concentrations leading to 8-10 mm zones of inhibition

Chain of recombinant E. coli FtsZ (P0A9A6 whole entry): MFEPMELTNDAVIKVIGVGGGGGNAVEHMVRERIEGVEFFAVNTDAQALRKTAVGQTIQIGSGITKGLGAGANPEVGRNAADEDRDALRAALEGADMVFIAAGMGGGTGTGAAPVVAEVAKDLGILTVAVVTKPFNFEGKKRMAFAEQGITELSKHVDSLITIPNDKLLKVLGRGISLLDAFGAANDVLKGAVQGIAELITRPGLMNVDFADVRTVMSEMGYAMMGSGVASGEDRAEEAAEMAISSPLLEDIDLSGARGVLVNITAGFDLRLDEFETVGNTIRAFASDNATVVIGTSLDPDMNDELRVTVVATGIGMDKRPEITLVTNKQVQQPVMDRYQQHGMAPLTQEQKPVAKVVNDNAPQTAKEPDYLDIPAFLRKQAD
Chain of GTP binding site of FtsZ (P0A9A6 whole entry): as above

SMILES: Oc1cc(O)c2c(c1)C/C(Cl)=C\Cc1cc(c(Cl)cc1O)Oc1c(O)cc(cc1O)C/C(Cl)=C\Cc1cc(c(Cl)cc1O)O2 [Compound 1, chrysophaentin 1]
- MIC50 ([1]; Enterococcus faecium, ATCC49032, microbroth dilution, read-out: MIC50 (μg/mL) E. faecium): 3.8 ± 1.9 µg/mL (≈ 5.6 µM)
- MIC50 (μg/mL) E. faecium ([1]; microbroth dilution): 3.5 ± 1.8 µg/mL (≈ 5.16 µM)
- concentration without cytotoxicity, BSC-1 [2]: > 100 µg/mL
- decrease in STD NMR signal intensity of compound on addition of GTPγS (GTP binding site of FtsZ; 0.5 equivalents GTPγS (625 μM), 1.25 mM compound, 12.5 μM FtsZ): ~50%
- mode of binding relative to GTP/GTPγS (GTP binding site of FtsZ; listed as chrysophaentin 1): in a competitive manner; also recorded: bind competitively
- mode of binding relative to GTP/GTPγS (GTP binding site of FtsZ; listed as compound 1): competitive inhibitor of GTP binding to FtsZ
- MIC50 ([3]; Enterococcus faecium, read-out: MIC50 (μg/mL) VREF): 2.9 ± 0.8 µg/mL (≈ 4.28 µM)
- MIC50 (μg/mL) VREF [3]: 2.8 ± 0.8 µg/mL (≈ 4.13 µM)
- MIC50 (μg/mL) VREF ([3]; listed as Chrysophaentin 1): 2.8 ± 0.8 µg/mL (≈ 4.13 µM)
- STD NMR combined enhancement, overlapped protons H-6′ and H-8 (recombinant E. coli FtsZ; [10]): ~50%
- STD NMR enhancement, proton H-3 (recombinant E. coli FtsZ; [10]): 100%
- STD NMR enhancement, proton H-3′ (recombinant E. coli FtsZ; [10]): 98%
- STD NMR enhancement, proton H-12 (recombinant E. coli FtsZ; [10]): 100%
- STD NMR enhancement, proton H-14 (recombinant E. coli FtsZ; [10]): 100%
- STD NMR enhancement, aromatic protons H-6 and H-6′ (recombinant E. coli FtsZ; as restated with the docked model): ~50%
- concentration without growth inhibition, P388 [4]: > 50 µg/mL
- selectivity for FtsZ over tubulin (tubulin): ≥ 15 fold
- effect on tubulin polymerization (tubulin; listed as chrysophaentin 1): no effect; also recorded: does not affect
- effect on tubulin polymerization (tubulin; listed as compound 1): no effect
- tubulin polymerization velocity v (tubulin; chrysophaentin 1 at 150 μM, paclitaxel, nocodazole at standardized concentrations): 49 min⁻¹
- MIC50 ([5]; Staphylococcus aureus, ATCC25923, microbroth dilution, read-out: MIC50 (μg/mL) S. aureus): 1.8 ± 0.6 µg/mL (≈ 2.65 µM)
- MIC50 (μg/mL) S. aureus [5]: 1.8 ± 0.6 µg/mL (≈ 2.65 µM)
- MIC50 (μg/mL) S. aureus ([5]; listed as chrysophaentin 1): 1.8 ± 0.6 µg/mL (≈ 2.65 µM)
- zone of inhibition at 2 µg/disc ([6]; Enterococcus faecium, ATCC49032, at 2 μg/disk): 10 mm
- Agar disk diffusion (μg/disk) E. faecium [6, 11]: 2 μg/disk
- zone of inhibition at 2 µg/disc ([7]; Enterococcus faecium, at 2 μg/disk): 10 mm
- Agar disk diffusion (μg/disk) VREF [7, 11]: 2 μg/disk
- Agar disk diffusion (μg/disk) S. aureus [8, 11]: 2 μg/disk
- zone of inhibition at 2 µg/disc ([8]; Staphylococcus aureus, ATCC25923, at 2 μg/disk): 10 mm
- potency relative to chrysophaentin 6 [9]: 3-5 times

Reference: US8399689B2, “Chrysophaentin antimicrobial compounds that inhibit FtsZ protein” (The United States of America, as represented by the …, priority 2010, dated 2013)
